Usually IC50 stands for the concentration at which inhibition is half-maximal.

SMILES strings stand for the structures. Bounds are passed on as bounds.

For the assay, the target named is human Nav1.7 (Homo sapiens (Human), UniProt Q15858). The assay is described as follows: FLIPR sodium dye assay (CoroNa Green) for sodium channel blocking activity in recombinant Nav1.7/HEK293 cells. In kind it is cell-based.
Chain of human Nav1.7 (Q15858 with tags, fused parts or gaps limits assumed): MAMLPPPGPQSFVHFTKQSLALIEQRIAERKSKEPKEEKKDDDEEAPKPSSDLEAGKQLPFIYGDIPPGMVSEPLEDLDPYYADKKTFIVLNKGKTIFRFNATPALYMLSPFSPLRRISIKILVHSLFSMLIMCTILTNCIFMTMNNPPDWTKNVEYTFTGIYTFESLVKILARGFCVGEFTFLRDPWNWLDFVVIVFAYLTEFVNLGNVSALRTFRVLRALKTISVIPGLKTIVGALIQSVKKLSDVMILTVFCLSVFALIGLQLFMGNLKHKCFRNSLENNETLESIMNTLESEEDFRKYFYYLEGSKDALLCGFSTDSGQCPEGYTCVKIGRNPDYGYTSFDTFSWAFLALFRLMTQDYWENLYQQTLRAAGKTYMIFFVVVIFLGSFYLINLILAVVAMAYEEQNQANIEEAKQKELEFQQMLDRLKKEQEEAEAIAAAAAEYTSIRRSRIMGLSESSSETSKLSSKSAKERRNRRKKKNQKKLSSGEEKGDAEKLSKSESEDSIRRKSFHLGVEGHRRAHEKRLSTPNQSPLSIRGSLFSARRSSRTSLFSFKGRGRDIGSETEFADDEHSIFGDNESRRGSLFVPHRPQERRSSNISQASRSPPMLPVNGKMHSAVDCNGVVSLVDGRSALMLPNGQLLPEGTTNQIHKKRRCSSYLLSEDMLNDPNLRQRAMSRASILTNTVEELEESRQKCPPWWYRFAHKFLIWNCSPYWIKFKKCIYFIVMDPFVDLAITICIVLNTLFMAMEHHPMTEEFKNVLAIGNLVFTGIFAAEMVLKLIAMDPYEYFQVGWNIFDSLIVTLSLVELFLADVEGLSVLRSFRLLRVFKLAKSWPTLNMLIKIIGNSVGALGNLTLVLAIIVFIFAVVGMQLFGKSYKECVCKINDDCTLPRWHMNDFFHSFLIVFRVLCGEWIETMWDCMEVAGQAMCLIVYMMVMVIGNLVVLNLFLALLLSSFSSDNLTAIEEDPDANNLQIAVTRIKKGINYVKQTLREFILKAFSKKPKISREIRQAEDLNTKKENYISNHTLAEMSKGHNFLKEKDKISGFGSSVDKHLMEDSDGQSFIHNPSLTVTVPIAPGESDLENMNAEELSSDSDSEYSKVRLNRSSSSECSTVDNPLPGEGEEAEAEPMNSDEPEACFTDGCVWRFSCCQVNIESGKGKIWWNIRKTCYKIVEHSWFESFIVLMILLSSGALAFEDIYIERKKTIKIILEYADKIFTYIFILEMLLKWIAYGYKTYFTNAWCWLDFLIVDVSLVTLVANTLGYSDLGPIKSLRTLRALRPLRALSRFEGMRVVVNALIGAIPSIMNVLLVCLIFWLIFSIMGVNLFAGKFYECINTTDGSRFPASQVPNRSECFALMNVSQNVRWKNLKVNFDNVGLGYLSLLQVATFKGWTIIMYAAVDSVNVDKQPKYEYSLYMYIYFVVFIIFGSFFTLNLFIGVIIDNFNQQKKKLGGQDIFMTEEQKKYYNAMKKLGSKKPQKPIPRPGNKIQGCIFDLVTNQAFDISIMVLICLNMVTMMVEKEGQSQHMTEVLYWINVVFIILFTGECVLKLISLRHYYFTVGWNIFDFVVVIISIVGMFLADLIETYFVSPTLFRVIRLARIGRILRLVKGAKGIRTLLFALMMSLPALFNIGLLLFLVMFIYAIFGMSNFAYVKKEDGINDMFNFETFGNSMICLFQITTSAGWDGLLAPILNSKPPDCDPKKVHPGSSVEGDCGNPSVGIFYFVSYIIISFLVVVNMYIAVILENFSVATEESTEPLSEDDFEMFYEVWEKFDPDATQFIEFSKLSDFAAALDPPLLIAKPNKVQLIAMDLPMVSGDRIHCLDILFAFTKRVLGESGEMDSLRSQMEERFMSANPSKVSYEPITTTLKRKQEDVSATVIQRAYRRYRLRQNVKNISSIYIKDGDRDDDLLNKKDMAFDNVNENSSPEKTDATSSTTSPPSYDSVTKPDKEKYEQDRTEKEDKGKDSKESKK
Regarding `NC(=O)c1nc(-c2ccc(Oc3ccc(C(F)(F)F)cn3)cc2)nc(N2CCOCC2)n1` [Compound 10, 4-morpholino-6-(4-((5-(trifluoromethyl)pyridin-2-yl)oxy)phenyl)-1,3,5-triazine-2-carboxamide], the 50% inhibitory concentration (IC50) was 0.353 ± 0.1 µM.
In the case of `NC(=O)c1nc(N)nc(-c2ccc(Oc3ccc(C(F)(F)F)cn3)cc2)n1` [Compound 13, 4-amino-6-(4-((5-(trifluoromethyl)pyridin-2-yl)oxy)phenyl)-1,3,5-triazine-2-carboxamide] it was greater than 20 µM; in that of `CCN(c1nc(C(N)=O)nc(-c2ccc(Oc3ccc(C(F)(F)F)cn3)cc2)n1)C(C)C` [Compound 5, 4-(ethyl(isopropyl)amino)-6-(4-((5-(trifluoromethyl)pyridin-2-yl)oxy)phenyl)-1,3,5-triazine-2-carboxamide], 0.645 ± 0.14 µM; in that of `NC(=O)c1nc(N)nc(N2CC(Oc3ccc(C(F)(F)F)cn3)C2)n1` [Compound 11, 4-amino-6-(3-((5-(trifluoromethyl)pyridin-2-yl)oxy)azetidin-1-yl)-1,3,5-triazine-2-carboxamide], greater than 20 µM.
As for `NC(=O)c1nc(N[C@H]2CCNC2=O)nc(N2CC(Oc3ccc(C(F)(F)F)cn3)C2)n1` [Compound 14, (S)-4-((2-oxopyrrolidin-3-yl)amino)-6-(3-((5-(trifluoromethyl)pyridin-2-yl)oxy)azetidin-1-yl)-1,3,5-triazine-2-carboxamide], the figure is greater than 20 µM.
As for `N#Cc1nc(N[C@H]2CCNC2=O)nc(-c2ccc(Oc3ccc(OC(F)(F)F)cc3)cc2)n1` [Compound 1, (S)-4-((2-oxopyrrolidin-3-yl)amino)-6-(4-(4-(trifluoromethoxy)phenoxy)phenyl)-1,3,5-triazine-2-carbonitrile], the figure is 2.25 ± 0.37 µM; as for `NC(=O)c1nc(N[C@H]2CCNC2=O)nc(-c2ccc(Oc3ccc(OC(F)(F)F)cc3)cc2)n1` [Compound 2, (S)-4-((2-oxopyrrolidin-3-yl)amino)-6-(4-(4-(trifluoromethoxy)phenoxy)phenyl)-1,3,5-triazine-2-carboxamide], 0.326 ± 0.116 µM.
In the case of `NC(=O)c1nc(-c2ccc(Oc3ccc(OC(F)(F)F)cc3)cc2)nc(N2CCOCC2)n1` [Compound 9, 4-morpholino-6-(4-(4-(trifluoromethoxy)phenoxy)phenyl)-1,3,5-triazine-2-carboxamide], the IC50 came out at 0.596 ± 0.102 µM.
As for `CCN(c1nc(C(N)=O)nc(-c2ccc(Oc3ccc(OC(F)(F)F)cc3)cc2)n1)C(C)C` [Compound 4, 4-(ethyl(isopropyl)amino)-6-(4-(4-(trifluoromethoxy)phenoxy)phenyl)-1,3,5-triazine-2-carboxamide], the figure is greater than 20 µM; as for `NC(=O)c1nc(NCCO)nc(-c2ccc(Oc3ccc(C(F)(F)F)cn3)cc2)n1` [Compound 12, 4-((2-hydroxyethyl)amino)-6-(4-((5-(trifluoromethyl)pyridin-2-yl)oxy)phenyl)-1,3,5-triazine-2-carboxamide], 0.243 ± 0.125 µM.
In the case of `N#Cc1nc(-c2ccc(Oc3ccc(C(F)(F)F)cn3)cc2)nc(N2CCOCC2)n1` [Compound 8, 4-morpholino-6-(4-((5-(trifluoromethyl)pyridin-2-yl)oxy)phenyl)-1,3,5-triazine-2-carbonitrile] it was 8.09 ± 0.959 µM.

Source of the values: patent publication US9120786B2, “Triazine carboxamides as sodium channel blockers” (priority 2013, dated 2015).
